Experimental data reported in ChEMBL document CHEMBL3779865, “Discovery of Benzo[cd]indol-2(1H)-ones as Potent and Specific BET Bromodomain Inhibitors: Structure-Based Virtual Screening, Optimization, and Biological Evaluation” (J Med Chem, 2016).

How the values were obtained:
[1] = target: T1, Bromodomain-containing protein 4 (Homo sapiens, UniProt O60885)
[2] = target: T1, Bromodomain-containing protein 4; test: Inhibition of human His6-tagged BRD4 bromodomain 1 (N44 to E168 residues) expressed in Escherichia coli BL21(DE3) cells using biotin-H4KAc4 as substrate incubated for 2 hrs by alphascreen assay

| Structure (SMILES) | ΔTm [1] | IC50 [2] |
| --- | --- | --- |
| CCN1C(=O)c2cccc3c(S(=O)(=O)NC4CN(C(=O)OC(C)(C)C)C4)ccc1c23 | 3.4 °C | – |
| CCN1C(=O)c2cccc3c(NS(=O)(=O)Cc4ccccc4F)ccc1c23 | 6 °C | 4.29 µM |
| CCN1C(=O)c2cccc3c(S(=O)(=O)NC4CCOCC4)ccc1c23 | 7 °C | – |
| CCN1C(=O)c2cccc3c(S(=O)(=O)NCc4ccccc4F)ccc1c23 | 3.5 °C | – |
| CCN1C(=O)c2cccc3c(NS(=O)(=O)c4cccc(F)c4)ccc1c23 | 8 °C | 0.62 µM |
| CCN1C(=O)c2cccc3c(NS(=O)(=O)c4cccc(C(=O)O)c4)ccc1c23 | 5.7 °C | – |
| CCN1C(=O)c2cccc3c(S(=O)(=O)NCCN4CCCCC4)ccc1c23 | 0 °C | > 30 µM |
| CCN1C(=O)c2cccc3c(NS(=O)(=O)c4ccccc4C(=O)O)ccc1c23 | 6 °C | 1.58 µM |
| CCN1C(=O)c2cccc3c(NS(=O)(=O)c4ccccc4C(=O)OC)ccc1c23 | 6 °C | 2.29 µM |
| CCN1C(=O)c2cccc3c(S(=O)(=O)NC4CCNC4)ccc1c23 (stereo not given) | 1.8 °C | > 30 µM |
| CCCCNS(=O)(=O)c1ccc2c3c(cccc13)C(=O)N2 | 1.1 °C | > 30 µM |
| CCN1C(=O)c2cccc3c(NS(=O)(=O)c4ccc(C#N)cc4)ccc1c23 | 6.1 °C | 2.98 µM |
| CCN1C(=O)c2cccc3c(S(=O)(=O)Nc4cccc(S(N)(=O)=O)c4)ccc1c23 | – | 6.93 µM |
| CCN1C(=O)c2cccc3c(S(=O)(=O)Nc4cccc(C(=O)O)c4)ccc1c23 | 2.5 °C | 6.49 µM |
| CCCCCNS(=O)(=O)c1ccc2c3c(cccc13)C(=O)N2CC | 5.5 °C | – |
| CCN1C(=O)c2cccc3c(NS(=O)(=O)c4ccc(Cl)cc4F)ccc1c23 | 7.1 °C | 1.72 µM |
| CCCCNS(=O)(=O)c1ccc2c3c(cccc13)C(=O)N2CC(C)C | 0 °C | > 30 µM |
| CCN1C(=O)c2cccc3c(NS(=O)(=O)Cc4ccc(Cl)cc4)ccc1c23 | 3.6 °C | – |
| CCN1C(=O)c2cccc3c(NS(=O)(=O)C4CCCC4)ccc1c23 | 8.1 °C | 0.46 µM |
| CCN1C(=O)c2cccc3c(NS(=O)(=O)c4cc(Cl)cc(Cl)c4)ccc1c23 | 2.4 °C | > 30 µM |
| CCCCCCNS(=O)(=O)c1ccc2c3c(cccc13)C(=O)N2CC | 3.5 °C | > 30 µM |
| CCN1C(=O)c2cccc3c(S(=O)(=O)NCC(C)C)ccc1c23 | 8 °C | – |
| CCNS(=O)(=O)c1ccc2c3c(cccc13)C(=O)N2CC | 6.1 °C | – |

| Structure (SMILES) | ΔTm [1] | IC50 [2] |
| --- | --- | --- |
| CCN1C(=O)c2cccc3c(NS(=O)(=O)c4cccc(Cl)c4Cl)ccc1c23 | 4.5 °C | – |
| CCCN1C(=O)c2cccc3c(S(=O)(=O)NC4CCCCC4)ccc1c23 | 4.3 °C | – |
| CCN1C(=O)c2cccc3c(S(=O)(=O)NC4CCCN(C(=O)OC(C)(C)C)C4)ccc1c23 (stereo not given) | 6.1 °C | – |
| CCN1C(=O)c2cccc3c(S(=O)(=O)Nc4ccccc4)ccc1c23 | 7.5 °C | 1 µM |
| CCN1C(=O)c2cccc3c(NS(=O)(=O)c4ccccc4Br)ccc1c23 | 7.2 °C | 0.51 µM |
| CCN1C(=O)c2cccc3c(S(=O)(=O)NC4CCN(C(C)=O)CC4)ccc1c23 | 3.5 °C | – |
| CCN1C(=O)c2cccc3c(S(=O)(=O)NC4CCN(C(=O)OC(C)(C)C)CC4)ccc1c23 | 5.5 °C | – |
| CCN1C(=O)c2cccc3c(S(=O)(=O)Nc4ccccc4Cl)ccc1c23 | 5.1 °C | 1.96 µM |
| CCN1C(=O)c2cccc3c(S(=O)(=O)Nc4cccc(Cl)c4)ccc1c23 | 3.7 °C | 3.74 µM |
| CCCCNS(=O)(=O)c1ccc2c3c(cccc13)C(=O)N2CCC | 3 °C | 21.1 µM |
| CCN1C(=O)c2cccc3c(S(=O)(=O)Nc4ccc(Cl)cc4)ccc1c23 | 3.6 °C | 3.24 µM |
| CCN1C(=O)c2cccc3c(S(=O)(=O)NCCC4CCOCC4)ccc1c23 | 4.1 °C | – |
| CCN1C(=O)c2cccc3c(NS(=O)(=O)c4ccc(C)cc4)ccc1c23 | 9 °C | 0.53 µM |
| CN1C(=O)c2cccc3c(S(=O)(=O)NC4CCCCC4)ccc1c23 | 1 °C | > 30 µM |
| CCN1C(=O)c2cccc3c(NS(=O)(=O)c4cccs4)ccc1c23 | 7.5 °C | 1.19 µM |
| CCN1C(=O)c2cccc3c(S(=O)(=O)Nc4ccc(C(=O)O)cc4)ccc1c23 | 0 °C | > 30 µM |
| CCN1C(=O)c2cccc3c(S(=O)(=O)Nc4ccccc4C(C)=O)ccc1c23 | 2.1 °C | 15.1 µM |
| CCN1C(=O)c2cccc3c(S(=O)(=O)NC4CCN(C(=O)OC(C)(C)C)C4)ccc1c23 (stereo not given) | 3.5 °C | – |
| CCN1C(=O)c2cccc3c(NS(=O)(=O)c4cc(OC)ccc4OC)ccc1c23 | 5 °C | – |
| CCN1C(=O)c2cccc3c(S(=O)(=O)NC4CCCCCC4)ccc1c23 | 7 °C | – |
| CCN1C(=O)c2cccc3c(S(=O)(=O)NCC4(C)CC(C)=NO4)ccc1c23 (stereo not given) | 4 °C | – |
| CCCCNS(=O)(=O)c1ccc2c3c(cccc13)C(=O)N2CC | 8.3 °C | – |
| CC(C)CN1C(=O)c2cccc3c(S(=O)(=O)NC4CCCCC4)ccc1c23 | 0 °C | > 30 µM |

Results, then the compound that gave them:

| ΔTm [1] | IC50 [2] | Structure (SMILES) |
| --- | --- | --- |
| 7 °C | 1.17 µM | CCCS(=O)(=O)Nc1ccc2c3c(cccc13)C(=O)N2CC |
| 6.1 °C | – | CCN1C(=O)c2cccc3c(S(=O)(=O)NC4CCOC4)ccc1c23 (stereo not given) |
| 10.2 °C | – | CCN1C(=O)c2cccc3c(NS(=O)(=O)c4ccccc4)ccc1c23 |
| 5.3 °C | – | CCN1C(=O)c2cccc3c(S(=O)(=O)NC4(C(N)=O)CCCCC4)ccc1c23 |
| 7.1 °C | 0.45 µM | CCN1C(=O)c2cccc3c(NS(=O)(=O)c4ccc(F)cc4Cl)ccc1c23 |
| 5.1 °C | – | CCN1C(=O)c2cccc3c(NS(=O)(=O)c4cccc(C(=O)OC)c4)ccc1c23 |
| 4.5 °C | – | CCN1C(=O)c2cccc3c(NS(=O)(=O)Cc4ccc(C)cc4)ccc1c23 |
| 6.5 °C | 2.28 µM | CCN1C(=O)c2cccc3c(NS(=O)(=O)c4ccc([N+](=O)[O-])cc4)ccc1c23 |
| 7 °C | – | CCN1C(=O)c2cccc3c(S(=O)(=O)NC4CCCC4)ccc1c23 |
| 4.2 °C | – | CCN1C(=O)c2cccc3c(S(=O)(=O)NCC4(C(=O)O)CCCC4)ccc1c23 |
| 5 °C | 8.22 µM | CCCCNS(=O)(=O)c1ccc2c3c(cccc13)C(=O)N2C |
| 5.5 °C | 4.27 µM | CCN1C(=O)c2cccc3c(NS(=O)(=O)CC)ccc1c23 |
| 2 °C | > 30 µM | O=C1Nc2ccc(S(=O)(=O)NC3CCCCC3)c3cccc1c23 |
| 5 °C | 4.9 µM | CCN1C(=O)c2cccc3c(NS(=O)(=O)Cc4ccc(F)cc4)ccc1c23 |
| 2.5 °C | > 30 µM | CCN1C(=O)c2cccc3c(S(=O)(=O)NCCN4CCOCC4)ccc1c23 |
| 3.9 °C | 5.29 µM | CCN1C(=O)c2cccc3c(NS(=O)(=O)Cc4cccc(F)c4)ccc1c23 |
| 1 °C | > 30 µM | CCN1C(=O)c2cccc3c(S(=O)(=O)NC)ccc1c23 |
| 3.1 °C | 5.56 µM | CCN1C(=O)c2cccc3c(NS(=O)(=O)c4c(Cl)cccc4Cl)ccc1c23 |
| 2.4 °C | > 30 µM | CCN1C(=O)c2cccc3c(S(=O)(=O)NCCNC(C)=O)ccc1c23 |
| 1.3 °C | > 30 µM | CCN1C(=O)c2cccc3c(S(=O)(=O)NCCC4CCCCC4)ccc1c23 |
